# Experimental data from patent US8158635B2, “Solid forms comprising 4-[9-(tetrahydro-furan-3-yl)-8-(2,4,6-trifluoro-phenylamino)-9H-purin-2-ylamino]-cyclohexan-1-ol, compositions thereof, and uses therewith” (Signal Pharmaceuticals, LLC, priority 2006, dated 2012).
# Like-named read-outs stand apart in the source and are kept apart here.
# Columns and labels:
# Type in all cases: physicochemical
# [1] = Approximate solubilities of solid forms in solvents; details: thermodynamic from solid, about 25° C., at least 24 hours, read-out: Approximate Solubility (mg/mL) of Form A of the Free Base of Compound I
# Protocol: A weighed sample comprising either the free base or the HCl salt of Compound I was treated with 2 mL of a solvent (either HPLC or reagent grade). The resulting mixture was agitated for at least 24 hours at about 25° C. When all of the solids were dissolved by visual inspection, the estimated solubility was calculated. The solubility was estimated from these experiments based on the total volume of solvent used to give a complete solution. The actual solubility may be greater than those calculated due to the use of a large amount of solvent or a slow rate of dissolution. A known volume of filtrate was evaporated to dryness and the weight of the residue was measured.
# [2] = Moisture sorption analysis (Dynamic Vapor Sorption)
# Protocol: (§1) In certain embodiments, Form A of the free base of Compound I is stable during drying at temperatures up to about 40-45° C. In certain embodiments, the crystallization and/or recrystallization of Form A of the free base of Compound I provides an effective means of purification by removing or reducing the levels of chemical impurities (such as, e.g., one or more of the chemical compounds provided in FIG. 14) in the resulting material. In certain embodiments, Form A of the free base of Compound I is substantially pure. […] In certain embodiments, Form A of the free base of Compound I is stable upon compression.
# Hygroscopicity (moisture sorption desorption) was determined by Dynamic Vapor Sorption (DVS). A solid sample comprising Compound I ranging from 10 to 50 mg was placed into the DVS instrument at 0% relative humidity (RH). The RH was increased from 0% to 80% or 95%. The RH was then decreased in a similar manner to accomplish a full sorption desorption cycle.
# [3] = Compression testing, form checked by XRPD; details: about 2000-psi pressure for about 1 min
# Protocol: as §1
# X-ray powder diffraction (XRPD) measurements were performed in accordance with United States Pharmacopeia (USP) monograph <941> entitled “X-ray Diffraction” (See, e.g., The United States Pharmacopeia, The National Formulary, 2003, The Unites States Pharmacopeial Convention, Inc., Rockville, Md., 2002, which is herein incorporated by reference in its entirety). A Thermo ARL X'TRA X-ray powder diffractometer (Thermo Electron Corp., Waltham, Mass.), equipped with Nickel-filtered Cu Kα radiation at 1.54 Å, was used for XRPD measurements from about 1.5 °2θ to about 40 °2θ, with a step size of about 0.020°, a count time of about 0.50 seconds per step, and a step scan rate of about 2.40°/min. […] Diffracted radiation was measured using a Peltier-cooled Si (Li) solid-state detector. […]
# [4] = Equilibration of solid form in solvent for 4 weeks at 40° C., resulting form by XRPD
# Protocol: Equilibration slurry and evaporation experiments were carried out by adding an excess of Compound I free base or HCl salt to 2 mL of solvent. […] Upon reaching equilibrium, the saturated supernatant solution was removed and allowed to evaporate slowly in an open vial under nitrogen at 25° C. or 50° C., respectively. The slurry resulting from the equilibration was filtered and air-dried. X-ray powder diffraction (XRPD) measurements were performed in accordance with United States Pharmacopeia (USP) monograph <941> entitled “X-ray Diffraction” (See, e.g., The United States Pharmacopeia, The National Formulary, 2003, The Unites States Pharmacopeial Convention, Inc., Rockville, Md., 2002, which is herein incorporated by reference in its entirety). A Thermo ARL X'TRA X-ray powder diffractometer (Thermo Electron Corp., Waltham, Mass.), equipped with Nickel-filtered Cu Kα radiation at 1.54 Å, was used for XRPD measurements from about 1.5 °2θ to about 40 °2θ, with a step size of about 0.020°, a count time of about 0.50 seconds per step, and a step scan rate of about 2.40°/min. The instrument was equipped with a fine focus X-ray tube. The voltage and amperage were set at 45 kV and 40 mA, respectively. The divergence slits were set at 0.5 mm and 0.2 mm. Diffracted radiation was measured using a Peltier-cooled Si (Li) solid-state detector. Representative XRPD patterns were presented displaying intensity (counts per second) versus position (°2θ). A sintered alumina standard was used to check peak positions. Peak positions may vary from sample to sample by approximately ±0.1 °2θ. Variation in peak position may depend upon multiple factors, including particle size, sample preparation, data collection temperature and parameters. Variation in peak intensity may occur, e.g., as a result of preferred orientation and/or variation in crystal habit.
structure (smiles),measurement,setting,value
"O[C@H]1CC[C@H](Nc2ncc3nc(Nc4c(F)cc(F)cc4F)n([C@H]4CCOC4)c3n2)CC1 (stereo in doubt) [Form A of the Free Base of Compound I, 4-[9-(tetrahydro-furan-3-yl)-8-(2,4,6-trifluoro-phenylamino)-9H-purin-2-ylamino]-cyclohexan-1-ol]",solubility,"[1]; 2-propanol, 25 °C, organic solvent or mixture, column 1, solvent 2-Propanol",15.7 mg/mL
same,solubility,"[1]; 2-propanol, 25 °C, organic solvent or mixture, solvent 2-Propanol",6.39 mg/mL
same,solubility,"[1]; absolute ethanol, 25 °C, organic solvent or mixture, column 1, solvent Absolute ethanol",47.1 mg/mL
same,solubility,"[1]; absolute ethanol, 25 °C, organic solvent or mixture, solvent Absolute ethanol",> 50 mg/mL
same,solubility,"[1]; acetone, 25 °C, organic solvent or mixture, column 1, solvent Acetone",11.6 mg/mL
same,solubility,"[1]; acetone, 25 °C, organic solvent or mixture, solvent Acetone",1.14 mg/mL
same,solubility,"[1]; acetonitrile, 25 °C, organic solvent or mixture, column 1, solvent Acetonitrile",2.58 mg/mL
same,solubility,"[1]; acetonitrile, 25 °C, organic solvent or mixture, solvent Acetonitrile",1.56 mg/mL
same,solubility,"[1]; ethanol/water (1/1), 25 °C, aqueous with cosolvent or surfactant or cyclodextrin, column 1, solvent Ethanol/Water (1/1)",11.6 mg/mL
same,solubility,"[1]; ethanol/water (1/1), 25 °C, aqueous with cosolvent or surfactant or cyclodextrin, solvent Ethanol/Water (1/1)",> 50 mg/mL
same,solubility,"[1]; ethyl acetate, 25 °C, organic solvent or mixture, column 1, solvent Ethyl acetate",3.91 mg/mL
same,solubility,"[1]; ethyl acetate, 25 °C, organic solvent or mixture, solvent Ethyl acetate",0.02 mg/mL
same,solubility,"[1]; heptane, 25 °C, organic solvent or mixture, column 1, solvent Heptane",0.55 mg/mL
same,solubility,"[1]; heptane, 25 °C, organic solvent or mixture, solvent Heptane",0.51 mg/mL
same,solubility,"[1]; methanol, 25 °C, organic solvent or mixture, column 1, solvent Methanol",> 50 mg/mL
same,solubility,"[1]; methanol, 25 °C, organic solvent or mixture, solvent Methanol",> 50 mg/mL
same,solubility,"[1]; methyl ethyl ketone, 25 °C, organic solvent or mixture, column 1, solvent Methyl ethyl ketone",8.74 mg/mL
same,solubility,"[1]; methyl ethyl ketone, 25 °C, organic solvent or mixture, solvent Methyl ethyl ketone",0.68 mg/mL
same,solubility,"[1]; methyl t-butyl ether, 25 °C, organic solvent or mixture, column 1, solvent Methyl t-butyl ether",1.1 mg/mL
same,solubility,"[1]; methylene chloride, 25 °C, organic solvent or mixture, column 1, solvent Methylene chloride",11.6 mg/mL
same,solubility,"[1]; methylene chloride, 25 °C, organic solvent or mixture, solvent Methylene chloride",5 mg/mL
same,solubility,"[1]; n-butanol, 25 °C, organic solvent or mixture, column 1, solvent n-Butanol",19.3 mg/mL
same,solubility,"[1]; n-butanol, 25 °C, organic solvent or mixture, solvent n-Butanol",7.5 mg/mL
same,solubility,"[1]; organic solvent or mixture, solvent Methyl t-butyl ether",0.46 mg/mL
same,solubility,"[1]; tetrahydrofuran, 25 °C, organic solvent or mixture, column 1, solvent Tetrahydrofuran",> 50 mg/mL
same,solubility,"[1]; tetrahydrofuran, 25 °C, organic solvent or mixture, solvent Tetrahydrofuran",2.03 mg/mL
same,solubility,"[1]; toluene, 25 °C, organic solvent or mixture, column 1, solvent Toluene",0.36 mg/mL
same,solubility,"[1]; toluene, 25 °C, organic solvent or mixture, solvent Toluene",0.04 mg/mL
same,solubility,"[1]; water, 25 °C, water, column 1, solvent Water",0.41 mg/mL
same,solubility,"[1]; water, 25 °C, water, solvent Water",> 50 mg/mL
same,XRPD pattern following moisture sorption analysis,[2]; after sorption/desorption cycle,substantially unchanged
same,mass gain in moisture sorption analysis,[2]; increased from about 0% to about 80% RH,about 0.5%
same,mass gain in moisture sorption analysis,[2]; increased from about 0% to about 95% RH,about 1.4%
same,XRPD pattern after compression testing,[3],substantially unchanged
same,Resulting Form by XRPD,[4]; Equilibrate Form A in 2-Propanol for 4 weeks at 40° C.,Compound I Free Base Form A
same,Resulting Form by XRPD,[4]; Equilibrate Form A in Acetone for 4 weeks at 40° C.,Compound I Free Base Form A
same,Resulting Form by XRPD,[4]; Equilibrate Form A in Acetonitrile for 4 weeks at 40° C.,Compound I Free Base Form A
same,Resulting Form by XRPD,[4]; Equilibrate Form A in Ethyl acetate for 4 weeks at 40° C.,Compound I Free Base Form A
same,Resulting Form by XRPD,[4]; Equilibrate Form A in Heptane for 4 weeks at 40° C.,Compound I Free Base Form A
same,Resulting Form by XRPD,[4]; Equilibrate Form A in MTBE for 4 weeks at 40° C.,Compound I Free Base Form A
same,Resulting Form by XRPD,[4]; Equilibrate Form A in Toluene for 4 weeks at 40° C.,Compound I Free Base Form A
same,Resulting Form by XRPD,[4]; Equilibrate Form A in Water for 4 weeks at 40° C.,Compound I Free Base Form A
